In ChEMBL document CHEMBL1151449, “In vitro activity of DC-159a, a new broad-spectrum fluoroquinolone, compared with that of other agents against drug-susceptible and -resistant pneumococci” (2008):
In brackets after ≈: the same amount, converted by molar mass.

Columns and labels:
Format in all cases: functional
Streptococcus pneumoniae [1] = assay: Antibacterial activity against azithromycin-resistant Streptococcus pneumoniae […] by agar dilution method
Streptococcus pneumoniae [2] = assay: Antibacterial activity against quinolone-susceptible Streptococcus pneumoniae ATCC 49619 by agar dilution method
Streptococcus pneumoniae [3] = assay: Antibacterial activity against penicillin-intermediate Streptococcus pneumoniae […] by agar dilution method
Streptococcus pneumoniae [4] = assay: Antibacterial activity against azithromycin-susceptible Streptococcus pneumoniae ATCC 49619 by agar dilution method
Streptococcus pneumoniae [5] = assay: Antibacterial activity against quinolone-resistant Streptococcus pneumoniae […] by agar dilution method
Streptococcus pneumoniae [6] = assay: Antibacterial activity against penicillin-susceptible Streptococcus pneumoniae ATCC 49619 by agar dilution method
Streptococcus pneumoniae [7] = assay: Antibacterial activity against penicillin-resistant Streptococcus pneumoniae […] by agar dilution method

CC1(C)S[C@@H]2[C@H](NC(=O)Cc3ccccc3)C(=O)N2[C@H]1C(=O)O [PENICILLIN G] was tested, and the MIC50 (Streptococcus pneumoniae [1]) was 0.5 µg/mL (≈ 1.5 µM), the MIC90 (Streptococcus pneumoniae [1]) was 4 µg/mL (≈ 12 µM) and the MIC50 (Streptococcus pneumoniae [2]) was 0.25 µg/mL (≈ 0.748 µM). The MIC90 (Streptococcus pneumoniae [2]) was 4 µg/mL (≈ 12 µM), the MIC50 (Streptococcus pneumoniae [3]) was 0.25 µg/mL (≈ 0.748 µM) and the MIC90 (Streptococcus pneumoniae [3]) was 1 µg/mL (≈ 2.99 µM). It also gave an MIC50 (Streptococcus pneumoniae [4]) of 0.25 µg/mL (≈ 0.748 µM), an MIC90 (Streptococcus pneumoniae [4]) of 2 µg/mL (≈ 5.98 µM) and an MIC50 (Streptococcus pneumoniae [5]) of 0.5 µg/mL (≈ 1.5 µM). For the same compound, the MIC90 (Streptococcus pneumoniae [5]) was 4 µg/mL (≈ 12 µM), the MIC50 (Streptococcus pneumoniae [6]) was 0.03 µg/mL (≈ 0.0897 µM) and the MIC90 (Streptococcus pneumoniae [6]) was 0.06 µg/mL (≈ 0.179 µM). The MIC50 (Streptococcus pneumoniae [7]) was 2 µg/mL (≈ 5.98 µM) and the MIC90 (Streptococcus pneumoniae [7]) was 4 µg/mL (≈ 12 µM).

Work on CC[C@H]1OC(=O)[C@H](C)C(=O)[C@H](C)[C@@H](O[C@@H]2O[C@H](C)C[C@H](N(C)C)[C@H]2O)[C@](C)(OC)C[C@@H](C)C(=O)[C@H](C)[C@H]2N(CCCCn3cnc(-c4cccnc4)c3)C(=O)O[C@]12C [TELITHROMYCIN] yielded an MIC50 (Streptococcus pneumoniae [1]) of 0.06 µg/mL (≈ 0.0739 µM), an MIC90 (Streptococcus pneumoniae [1]) of 0.25 µg/mL (≈ 0.308 µM) and an MIC50 (Streptococcus pneumoniae [2]) of 0.03 µg/mL (≈ 0.0369 µM). For the same compound, the MIC90 (Streptococcus pneumoniae [2]) was 0.12 µg/mL (≈ 0.148 µM), the MIC50 (Streptococcus pneumoniae [3]) was 0.03 µg/mL (≈ 0.0369 µM) and the MIC90 (Streptococcus pneumoniae [3]) was 0.12 µg/mL (≈ 0.148 µM). The MIC50 (Streptococcus pneumoniae [4]) was 0.016 µg/mL (≈ 0.0197 µM), the MIC90 (Streptococcus pneumoniae [4]) was 0.03 µg/mL (≈ 0.0369 µM) and the MIC50 (Streptococcus pneumoniae [5]) was 0.016 µg/mL (≈ 0.0197 µM). For the same compound, the MIC90 (Streptococcus pneumoniae [5]) was 0.25 µg/mL (≈ 0.308 µM), the MIC50 (Streptococcus pneumoniae [6]) was 0.03 µg/mL (≈ 0.0369 µM) and the MIC90 (Streptococcus pneumoniae [6]) was 0.12 µg/mL (≈ 0.148 µM). For the same compound, the MIC50 (Streptococcus pneumoniae [7]) was 0.06 µg/mL (≈ 0.0739 µM) and the MIC90 (Streptococcus pneumoniae [7]) was 0.25 µg/mL (≈ 0.308 µM).
